Experimental data from patent US9242987B2, “Heterocyclyl pyrazolopyrimidine analogues as JAK inhibitors” (Cellzome Limited, priority 2009, dated 2016).

Legend:
JAK2 = target: T1, JAK2 (Homo sapiens, UniProt O60674); experiment: Kinobeads assay, JAK2; format: binding; settings: mixed Molt4/Ramos cell lysate, dot blot detection
T1 construct: endogenous in cells; host or cells: Mixed Molt4/Ramos lysate (1:2)
Procedure, shortened: (§1)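 Lysate from Molt4 and Ramos cells combined 1:2 at 10 mg/mL total protein met test compound and an aminopyrido-pyrimidine affinity matrix for 3 h in the cold. Captured JAK2 and JAK3, after elution, were measured by specific-antibody dot blot on an infrared system; dose-response curves yielded IC50.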

JAK3 = target: T2, JAK3 (Homo sapiens, UniProt P52333); experiment: Kinobeads assay, JAK3; format: binding; settings: mixed Molt4/Ramos cell lysate, dot blot detection
T2 construct: endogenous in cells; host or cells: Mixed Molt4/Ramos lysate (1:2)
T2 sequence (P52333 1-1124): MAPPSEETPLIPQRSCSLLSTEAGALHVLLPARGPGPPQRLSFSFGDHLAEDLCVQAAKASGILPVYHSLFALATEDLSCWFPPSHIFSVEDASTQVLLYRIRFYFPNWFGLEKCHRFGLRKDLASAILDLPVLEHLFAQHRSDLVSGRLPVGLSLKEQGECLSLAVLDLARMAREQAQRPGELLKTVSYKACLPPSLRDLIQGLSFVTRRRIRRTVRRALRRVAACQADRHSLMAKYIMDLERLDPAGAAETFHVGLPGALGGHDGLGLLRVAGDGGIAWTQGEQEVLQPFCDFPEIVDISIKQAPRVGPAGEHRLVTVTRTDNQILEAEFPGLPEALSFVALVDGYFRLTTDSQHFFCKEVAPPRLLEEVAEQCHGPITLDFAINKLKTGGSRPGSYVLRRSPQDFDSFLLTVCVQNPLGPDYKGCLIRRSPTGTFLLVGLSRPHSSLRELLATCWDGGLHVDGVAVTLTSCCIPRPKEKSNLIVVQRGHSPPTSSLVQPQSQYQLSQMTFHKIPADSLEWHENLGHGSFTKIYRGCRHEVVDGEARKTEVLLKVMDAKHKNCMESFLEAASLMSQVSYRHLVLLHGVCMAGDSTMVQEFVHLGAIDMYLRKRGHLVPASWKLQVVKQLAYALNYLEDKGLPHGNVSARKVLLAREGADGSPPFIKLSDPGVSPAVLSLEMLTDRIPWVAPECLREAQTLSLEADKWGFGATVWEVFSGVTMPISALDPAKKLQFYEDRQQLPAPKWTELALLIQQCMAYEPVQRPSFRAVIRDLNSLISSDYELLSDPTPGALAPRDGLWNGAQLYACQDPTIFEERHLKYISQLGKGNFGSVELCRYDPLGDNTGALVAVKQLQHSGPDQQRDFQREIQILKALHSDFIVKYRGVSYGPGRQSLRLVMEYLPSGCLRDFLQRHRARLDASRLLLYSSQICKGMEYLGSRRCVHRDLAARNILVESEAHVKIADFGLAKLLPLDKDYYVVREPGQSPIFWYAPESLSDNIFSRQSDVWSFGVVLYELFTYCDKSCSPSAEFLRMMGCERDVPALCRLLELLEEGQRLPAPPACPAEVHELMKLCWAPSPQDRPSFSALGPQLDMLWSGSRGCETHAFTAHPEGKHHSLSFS
Procedure, shortened: as §1

T1 sequence (O60674 whole entry): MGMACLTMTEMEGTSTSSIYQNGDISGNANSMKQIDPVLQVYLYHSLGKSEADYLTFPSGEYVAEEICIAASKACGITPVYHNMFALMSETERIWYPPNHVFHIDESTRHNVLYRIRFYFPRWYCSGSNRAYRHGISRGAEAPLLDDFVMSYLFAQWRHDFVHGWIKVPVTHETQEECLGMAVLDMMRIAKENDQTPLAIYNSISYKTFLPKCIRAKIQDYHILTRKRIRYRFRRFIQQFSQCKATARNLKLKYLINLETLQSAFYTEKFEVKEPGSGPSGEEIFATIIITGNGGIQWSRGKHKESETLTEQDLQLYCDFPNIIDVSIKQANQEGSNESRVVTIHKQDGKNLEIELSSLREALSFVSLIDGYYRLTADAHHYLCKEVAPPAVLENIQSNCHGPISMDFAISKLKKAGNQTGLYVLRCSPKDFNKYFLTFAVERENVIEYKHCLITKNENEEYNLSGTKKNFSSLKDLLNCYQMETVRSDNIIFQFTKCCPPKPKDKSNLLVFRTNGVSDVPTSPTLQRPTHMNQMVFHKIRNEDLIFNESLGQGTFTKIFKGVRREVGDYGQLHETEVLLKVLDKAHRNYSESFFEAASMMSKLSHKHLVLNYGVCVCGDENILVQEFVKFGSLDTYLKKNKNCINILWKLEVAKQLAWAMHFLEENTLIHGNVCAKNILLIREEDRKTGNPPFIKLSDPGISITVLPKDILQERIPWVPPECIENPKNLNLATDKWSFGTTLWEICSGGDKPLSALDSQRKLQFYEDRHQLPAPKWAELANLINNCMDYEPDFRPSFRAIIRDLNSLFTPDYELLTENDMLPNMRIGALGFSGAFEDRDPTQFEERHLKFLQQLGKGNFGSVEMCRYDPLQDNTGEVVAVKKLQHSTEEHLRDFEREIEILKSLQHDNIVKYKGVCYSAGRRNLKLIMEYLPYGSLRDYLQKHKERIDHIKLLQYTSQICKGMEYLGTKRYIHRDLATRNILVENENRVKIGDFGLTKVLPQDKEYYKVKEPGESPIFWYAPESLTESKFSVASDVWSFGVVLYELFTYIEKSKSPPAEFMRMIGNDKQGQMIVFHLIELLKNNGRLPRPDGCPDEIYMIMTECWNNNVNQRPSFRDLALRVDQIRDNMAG

| IC50 (JAK2) [nM] | IC50 (JAK3) [nM] | Compound |
| --- | --- | --- |
| 1000 to 10000 | < 100 | CNC(=O)Cn1cc(Nc2ncc3cnn(Cc4ccccc4)c3n2)cn1 [Example 133, 2-(4-((1-Benzyl-1H-pyrazolo[3,4-d]pyrimidin-6-yl)amino)-1H-pyrazol-1-yl)-N-methylacetamide] |
| 1000 to 10000 | < 100 | Cn1cc(Nc2ncc3cnn(Cc4ccccc4NS(=O)(=O)CC(F)(F)F)c3n2)cn1 [Example 134] |
| 1000 to 10000 | 100 to 1000 | Cn1cc(Nc2ncc3cnn(-c4ccc(C(N)=O)cc4)c3n2)cn1 [Example 135, 4-(6-((1-Methyl-1H-pyrazol-4-yl)amino)-1H-pyrazolo[3,4-d]pyrimidin-1-yl)benzamide] |
| 1000 to 10000 | 100 to 1000 | CNC(=O)c1ccc(-n2ncc3cnc(Nc4cnn(C)c4)nc32)cc1 [Example 136, N-methyl-4-(6-((1-methyl-1H-pyrazol-4-yl)amino)-1H-pyrazolo[3,4-d]pyrimidin-1-yl)benzamide] |
| 100 to 1000 | < 100 | Cn1cc(Nc2ncc3cnn(-c4ccc(C(=O)N5CCOCC5)cc4)c3n2)cn1 [Example 137, (4-(6-((1-Methyl-1H-pyrazol-4-yl)amino)-1H-pyrazolo[3,4-d]pyrimidin-1-yl)phenyl)(morpholino)methanone] |
| 1000 to 10000 | 100 to 1000 | Cn1cc(Nc2ncc3cnn(-c4ccc(S(N)(=O)=O)c(F)c4)c3n2)cn1 [Example 138, 2-Fluoro-4-(6-((1-methyl-1H-pyrazol-4-yl)amino)-1H-pyrazolo[3,4-d]pyrimidin-1-yl)benzenesulfonamide] |
| 1000 to 10000 | 100 to 1000 | Cn1cc(Nc2ncc3cnn(-c4ccc(S(=O)(=O)NCCO)cc4)c3n2)cn1 [Example 139, N-(2-Hydroxyethyl)-4-(6-((1-methyl-1H-pyrazol-4-yl)amino)-1H-pyrazolo[3,4-d]pyrimidin-1-yl)benzenesulfonamide] |
| 1000 to 10000 | < 100 | Cn1cc(Nc2ncc3cnn(Cc4cccc(NS(C)(=O)=O)c4)c3n2)cn1 [Example 140, N-(3-((6-((1-Methyl-1H-pyrazol-4-yl)amino)-1H-pyrazolo[3,4-d]pyrimidin-1-yl)methyl)phenyl)methanesulfonamide] |
| ≥ 10000 | 100 to 1000 | CC(C)S(=O)(=O)Nc1cccc(Cn2ncc3cnc(Nc4cnn(C)c4)nc32)c1 [Example 141, N-(3-((6-((1-Methyl-1H-pyrazol-4-yl)amino)-1H-pyrazolo[3,4-d]pyrimidin-1-yl)methyl)phenyl)propane-2-sulfonamide] |
| 100 to 1000 | < 100 | Cn1cc(Nc2ncc3cnn(Cc4c(F)cccc4NS(C)(=O)=O)c3n2)cn1 [Example 142] |
| 1000 to 10000 | < 100 | Fc1ccccc1Cn1ncc2cnc(Nc3cnn(CCN4CCCCC4)c3)nc21 [Example 143, 1-(2-Fluorobenzyl)-N-(1-(2-(piperidin-1-yl)ethyl)-1H-pyrazol-4-yl)-1H-pyrazolo[3,4-d]pyrimidin-6-amine] |
| 100 to 1000 | < 100 | Fc1ccccc1Cn1ncc2cnc(Nc3cnn(CCCN4CCCCC4)c3)nc21 [Example 144, 1-(2-Fluorobenzyl)-N-(1-(3-(piperidin-1-yl)propyl)-1H-pyrazol-4-yl)-1H-pyrazolo[3,4-d]pyrimidin-6-amine] |
| 100 to 1000 | < 100 | Fc1ccccc1Cn1ncc2cnc(Nc3cnn(CCCN4CCOCC4)c3)nc21 [Example 145, 1-(2-Fluorobenzyl)-N-(1-(3-morpholinopropyl)-1H-pyrazol-4-yl)-1H-pyrazolo[3,4-d]pyrimidin-6-amine] |
| 1000 to 10000 | 100 to 1000 | Cn1cc(Nc2ncc3cnn(-c4cccc(C(=O)N5CCOCC5)c4)c3n2)cn1 [Example 146, (3-(6-((1-Methyl-1H-pyrazol-4-yl)amino)-1H-pyrazolo[3,4-d]pyrimidin-1-yl)phenyl)(morpholino)methanone] |
| ≥ 10000 | 100 to 1000 | Cn1cc(Nc2ncc3cnn(-c4cccc(C(=O)NCCO)c4)c3n2)cn1 [Example 147, N-(2-Hydroxyethyl)-3-(6-((1-methyl-1H-pyrazol-4-yl)amino)-1H-pyrazolo[3,4-d]pyrimidin-1-yl)benzamide] |
| 1000 to 10000 | 100 to 1000 | Cn1cc(Nc2ncc3cnn(-c4ccc(C(=O)NCCO)cc4)c3n2)cn1 [Example 148, N-(2-Hydroxyethyl)-4-(6-((1-methyl-1H-pyrazol-4-yl)amino)-1H-pyrazolo[3,4-d]pyrimidin-1-yl)benzamide] |
| 1000 to 10000 | 100 to 1000 | CN1CCN(C(=O)c2ccc(-n3ncc4cnc(Nc5cnn(C)c5)nc43)cc2)CC1 [Example 149, (4-(6-((1-Methyl-1H-pyrazol-4-yl)amino)-1H-pyrazolo[3,4-d]pyrimidin-1-yl)phenyl)(4-methylpiperazin-1-yl)methanone] |
| 1000 to 10000 | < 100 | Cc1nn(CC(F)F)cc1Nc1ncc2cnn(Cc3cc(F)ccc3F)c2n1 [Example 150, 1-(2,5-Difluorobenzyl)-N-(1-(2,2-difluoroethyl)-3-methyl-1H-pyrazol-4-yl)-1H-pyrazolo[3,4-d]pyrimidin-6-amine] |
| 100 to 1000 | < 100 | Cc1nn(CC(F)F)cc1Nc1ncc2cnn(Cc3cc(F)ccc3C#N)c2n1 [Example 151, 2-((6-((1-(2,2-Difluoroethyl)-3-methyl-1H-pyrazol-4-yl)amino)-1H-pyrazolo[3,4-d]pyrimidin-1-yl)methyl)-4-fluorobenzonitrile] |
| 1000 to 10000 | < 100 | COc1nn(CC(F)F)cc1Nc1ncc2cnn(Cc3cc(F)ccc3F)c2n1 [Example 152, 1-(2,5-Difluorobenzyl)-N-(1-(2,2-difluoroethyl)-3-methoxy-1H-pyrazol-4-yl)-1H-pyrazolo[3,4-d]pyrimidin-6-amine] |
| 100 to 1000 | < 100 | COc1nn(CC(F)F)cc1Nc1ncc2cnn(Cc3cc(F)ccc3C#N)c2n1 [Example 153, 2-((6-((1-(2,2-Difluoroethyl)-3-methoxy-1H-pyrazol-4-yl)amino)-1H-pyrazolo[3,4-d]pyrimidin-1-yl)methyl)-4-fluorobenzonitrile] |
| 1000 to 10000 | 100 to 1000 | Cc1c(F)cccc1Cn1ncc2cnc(Nc3cnn(CC(F)F)c3)nc21 [Example 154, N-(1-(2,2-Difluoroethyl)-1H-pyrazol-4-yl)-1-(3-fluoro-2-methylbenzyl)-1H-pyrazolo[3,4-d]pyrimidin-6-amine] |
| 1000 to 10000 | < 100 | Fc1cccc(Cn2ncc3cnc(Nc4cnn(CC(F)F)c4)nc32)c1F [Example 155, 1-(2,3-Difluorobenzyl)-N-(1-(2,2-difluoroethyl)-1H-pyrazol-4-yl)-1H-pyrazolo[3,4-d]pyrimidin-6-amine] |
| 1000 to 10000 | 100 to 1000 | Fc1c(Cl)cccc1Cn1ncc2cnc(Nc3cnn(CC(F)F)c3)nc21 [Example 156, 1-(3-Chloro-2-fluorobenzyl)-N-(1-(2,2-difluoroethyl)-1H-pyrazol-4-yl)-1H-pyrazolo[3,4-d]pyrimidin-6-amine] |
| 100 to 1000 | < 100 | Fc1ccc(F)c(Cn2ncc3cnc(Nc4cnn(CC(F)F)c4)nc32)c1F [Example 157, N-(1-(2,2-Difluoroethyl)-1H-pyrazol-4-yl)-1-(2,3,6-trifluorobenzyl)-1H-pyrazolo[3,4-d]pyrimidin-6-amine] |
| < 100 | < 100 | Cn1cc(Nc2ncc3cnn(Cc4cc(F)cc(F)c4F)c3n2)cn1 [Example 158, N-(1-Methyl-1H-pyrazol-4-yl)-1-(2,3,5-trifluorobenzyl)-1H-pyrazolo[3,4-d]pyrimidin-6-amine] |
| 1000 to 10000 | < 100 | COc1ccc(F)c(Cn2ncc3cnc(Nc4cnn(C)c4)nc32)c1F [Example 159, 1-(2,6-Difluoro-3-methoxybenzyl)-N-(1-methyl-1H-pyrazol-4-yl)-1H-pyrazolo[3,4-d]pyrimidin-6-amine] |
| 1000 to 10000 | < 100 | Fc1cccc(F)c1Cn1ncc2cnc(Nc3cnn(CC(F)F)c3)nc21 [Example 160, 1-(2,6-Difluorobenzyl)-N-(1-(2,2-difluoroethyl)-1H-pyrazol-4-yl)-1H-pyrazolo[3,4-d]pyrimidin-6-amine] |
